According to patent US20160075695A1, “BENZIMIDAZOLE DERIVATIVES AS BROMODOMAIN INHIBITORS” (Gilead Sciences, Inc., priority 2013, published 2016):

Assays:
[1] = molecular target: T1, BRD4-2 (Homo sapiens, UniProt O60885); assay: BRD4-2 Ligand KI assay (TR-FRET, Cy5 labeled probe displacement); assay type: binding
T1 construct: made in house; host or cells: Escherichia coli
Description: (§1) Binding of the two tandem bromodomains, BRD4-I and BRD4-2, to a Cy5 labeled probe/ligand (Compound 1020-501) were measured using a homogeneous time resolved fluorescence resonance energy transfer (TR-FRET) assay.
(§2) The labeled ligand specifically binds BRD4-1 and BRD4-2 and can be displaced by a small molecule inhibitor that shares a similar or overlapping binding site. BRD4-I and BRD4-2 were expressed and purified from Escherichia coli as N-terminal His6-tagged proteins. A Eu-cryptate labeled anti-His antibody (Perkin Elmer) was used to specifically bind BRD4. […] Assays were performed in 50 mM Hepes (pH 7.5), 150 mM NaCl, 0.1 mg/ml BSA, 0.01% (v/v) Brij, 0.5% (v/v) DMSO and 1.0 nM labeled ligand at the following concentrations for each BRD4 isoform: 2 nM BRD4-1 and 0.5 nM BRD4-2. After an assay reaction time of 60 minutes at 25° C., binding was measured with 2 nM Eu-cryptate labeled anti-His antibody. TR-FRET signal was detected on an Envision plate reader (Ex: 320 nm; Em: 615/665 nm; 100 μs delay and 200 μs read window). […] All IC50 values represent geometric mean values of a minimum of four determinations. The IC50 values were converted to Ki values (dissociation constant for BRD4-inhibitor complex) using the Cheng and Prusoff equation for a competitive inhibitor mode of action. These assays generally produced results within 3-fold of the reported mean.

[2] = molecular target: T2, BRD4-1 (Homo sapiens, UniProt O60885); assay: BRD4-1 Ligand KI assay (TR-FRET, Cy5 labeled probe displacement); assay type: binding
T2 construct: made in house; host or cells: Escherichia coli
Description: as §1, §2

[3] = molecular target: T2, BRD4-1; assay: HTRF (TR-FRET) assay, BRD4-1 binding to acetylated histone H4 peptide
Description: (§3) Binding of the two tandem bromodomains, BRD4-1 and BRD4-2, to an acetylated histone H4 peptide was measured using a homogeneous time resolved fluorescence resonance energy transfer (TR-FRET) assay. […] BRD4-1 and BRD4-2 were expressed and purified from Escherichia coli as N-terminal His6-tagged proteins. An XL665 labeled anti-His antibody (Cisbio) was used to specifically bind BRD4 and a cryptate labeled streptavidin protein was used because it specifically recognized the biotinylated H4 peptide. […] After an assay reaction time of 60 minutes at 25° C., binding was measured with 2 nM crytptate labeled streptavidin and 10 nM anti-His-XL665 antibody. TR-FRET signal was detected on an Envision plate reader (Ex: 320 nm; Em: 615/665 nm; 100 us delay and 200 μs read window). […] All IC50 values represent geometric mean values of a minimum of four determinations.

[4] = molecular target: T1, BRD4-2; assay: HTRF (TR-FRET) assay, BRD4-2 binding to acetylated histone H4 peptide
Description: as §3

[5] = molecular target: T2, BRD4-1; assay: Alpha assay, BRD4-1 binding to acetylated histone H4 peptide
Description: Binding of the bromodomain BRD4-I to an acetylated histone H4 peptide was measured using a bead-based Amplified Luminescent Proximity Homogeneous Assay (ALPHA). […] BRD4-I was expressed and purified from Escherichia coli as an N-terminal His6-tagged protein. Nickel-Chelate ALPHA acceptor beads (Perkin Elmer) were used to specifically bind BRD4-1 and ALPHA streptavidin donor beads (Perkin Elmer) were used because they specifically recognized the biotinylated H4 peptide. […] Assays were performed in 50 mM Hepes (pH 7.5), 150 mM NaCl, 0.1 mg/ml BSA, 0.01% (v/v) Brij, 0.5% (v/v) DMSO, 200 nM H4 peptide and 15 nM of BRD4-1 protein. After an assay reaction time of 60 minutes at 25° C., binding was measured with 20 μg/ml streptavidin donor beads and 20 μg/ml nickle-chelate acceptor beads. ALPHA signal was detected on an Envision plate reader (Ex: 320 nm; Em: 570 nm; Ex time: 180 ms). […] All IC50 values represent geometric mean values of a minimum of four determinations.

[6] = 0.5 nM BRD4-2, 1.0 nM labeled ligand, 60 minutes at 25° C., read-out: BRD4-2 Ligand KI (IC50)
[7] = 2 nM BRD4-1, 1.0 nM labeled ligand, 60 minutes at 25° C., read-out: BRD4-1 Ligand KI (IC50)
[8] = 60 nM BRD4-1, 200 nM H4 peptide, 60 minutes at 25° C., geometric mean of a minimum of four determinations, read-out: HTRF BRD4-1 (IC50)
[9] = 120 nM BRD4-2, 200 nM H4 peptide, 60 minutes at 25° C., geometric mean of a minimum of four determinations, read-out: HTRF BRD4-2 (IC50)
[10] = 15 nM BRD4-1, 200 nM H4 peptide, 60 minutes at 25° C., geometric mean of a minimum of four determinations, read-out: Alpha Assay (IC50)

## Cc1noc(C)c1-c1cc(C(O)(c2ccccc2)c2ccccn2)c2nc(C3CC3)[nH]c2c1 (stereo not shown) [Compound 1020-113, (2-cyclopropyl-6-(3,5-dimethylisoxazol-4-yl)-1H-benzo[d]imidazol-4-yl)(phenyl)(pyridin-2-yl)methanol]
[1]; [6]
  IC50: 12.8 nM
[2]; [7]
  IC50: 10.7 nM

## Cc1noc(C)c1-c1cc(C(O)(c2ccccn2)c2ccccn2)c2nc(C3CC3)[nH]c2c1 [Compound 1020-104, (2-cyclopropyl-6-(3,5-dimethylisoxazol-4-yl)-1H-benzo[d]imidazol-4-yl)di(pyridin-2-yl)methanol]
[1]; [6]
  IC50: 11.7 nM
[2]; [7]
  IC50: 7.2 nM

## Cc1noc(C)c1-c1cc(C(C)c2ccc(F)cc2)c2[nH]c(C3CC3)nc2c1 (stereo not shown) [Compound 1020-44, 4-(2-Cyclopropyl-4-(1-(4-fluorophenyl)ethyl)-1H-benzo[d]imidazol-6-yl)-3,5-dimethylisoxazole]
[3]; [8]
  IC50: 139 nM
[4]; [9]
  IC50: 111 nM
[5]; [10]
  IC50: 22 nM

## Cc1n[nH]c(C)c1-c1cc(-c2c(C)noc2C)cc2nc(C3CC3(F)F)[nH]c12 (stereo not shown) [Compound 1020-78, 4-(2-(2,2-Difluorocyclopropyl)-7-(3,5-dimethyl-1H-pyrazol-4-yl)-1H-benzo[d]imidazol-5-yl)-3,5-dimethylisoxazole]
[3]; [8]
  IC50: 161 nM
[4]; [9]
  IC50: 94.1 nM
[5]; [10]
  IC50: 25.1 nM

## Cc1noc(C)c1-c1cc(C(O)(c2ccccn2)c2ccccn2)c2nc(C3CC3)[nH]c2c1F [Compound 1020-224, (2-cyclopropyl-6-(3,5-dimethylisoxazol-4-yl)-7-fluoro-1H-benzo[d]imidazol-4-yl)di(pyridin-2-yl)methanol]
[1]
  IC50: 20.2 nM
[2]
  IC50: 10.8 nM

## Cc1noc(C)c1-c1cc(C(O)(c2ccccc2)c2cccnc2)c2nc(C3CC3)[nH]c2c1 (stereo not shown) [Compound 1020-112, (2-cyclopropyl-6-(3,5-dimethylisoxazol-4-yl)-1H-benzo[d]imidazol-4-yl)(phenyl)(pyridin-3-yl)methanol]
[1]; [6]
  IC50: 13.5 nM
[2]; [7]
  IC50: 10.4 nM

## Cc1noc(C)c1-c1cc(C(O)(c2nccs2)c2nccs2)c2nc(C3CC3)[nH]c2c1 [Compound 1020-103, (2-cyclopropyl-6-(3,5-dimethylisoxazol-4-yl)-1H-benzo[d]imidazol-4-yl)di(thiazol-2-yl)methanol]
[1]; [6]
  IC50: 12.4 nM
[2]; [7]
  IC50: 4 nM

## Cc1ccc2ncccc2c1-c1cc(-c2c(C)noc2C)cc2[nH]c(-c3cnn(C)c3)nc12 [Compound 1020-88, 3,5-Dimethyl-4-(2-(1-methyl-1H-pyrazol-4-yl)-4-(6-methylquinolin-5-yl)-1H-benzo[d]imidazol-6-yl)isoxazole]
[3]; [8]
  IC50: 104 nM
[4]; [9]
  IC50: 131 nM
[5]; [10]
  IC50: 15.9 nM

## Cc1noc(C)c1-c1cc(N2C(=O)CCC2C)c2nc(C3CC3)[nH]c2c1 (stereo not shown) [Compound 1020-136, 1-(2-Cyclopropyl-6-(3,5-dimethylisoxazol-4-yl)-1H-benzo[d]imidazol-4-yl)-5-methylpyrrolidin-2-one]
[3]; [8]
  IC50: 823 nM
[4]; [9]
  IC50: 727 nM
[5]; [10]
  IC50: 513 nM

## Cc1n[nH]c(C)c1-c1cc(-c2c(C)noc2C)cc2[nH]c(NCC3CC3)nc12 [Compound 1020-79, N-(Cyclopropylmethyl)-4-(3,5-dimethyl-1H-pyrazol-4-yl)-6-(3,5-dimethylisoxazol-4-yl)-1H-benzo[d]imidazol-2-amine]
[3]; [8]
  IC50: 161 nM
[4]; [9]
  IC50: 87.2 nM
[5]; [10]
  IC50: 33.6 nM

## CCC(CC)c1cc(-c2c(C)noc2C)cc2[nH]c(C3CC3)nc12 [Compound 1020-120, 4-(2-Cyclopropyl-4-(pentan-3-yl)-1H-benzo[d]imidazol-6-yl)-3,5-dimethylisoxazole]
[3]
  IC50: 88.5 nM
[4]
  IC50: 76.1 nM
[5]
  IC50: 39.7 nM

## COc1nc2c(-c3c(C)ccc4ncccc34)cc(-c3c(C)noc3C)cc2[nH]1 [Compound 1020-90, 4-(2-methoxy-4-(6-methylquinolin-5-yl)-1H-benzo[d]imidazol-6-yl)-3,5-dimethylisoxazole]
[3]; [8]
  IC50: 110 nM
[4]; [9]
  IC50: 121 nM
[5]; [10]
  IC50: 29.9 nM

## CC/C=C(\CC)c1cc(-c2c(C)noc2C)cc2nc(C3CC3)[nH]c12 [Compound 1020-28, (E)-4-(2-Cyclopropyl-4-(hex-3-en-3-yl)-1H-benzo[d]imidazol-6-yl)-3,5-dimethylisoxazole]
[3]; [8]
  IC50: 71.8 nM
[4]; [9]
  IC50: 65.5 nM
[5]; [10]
  IC50: 18.1 nM

## Cc1ccc2ncccc2c1-c1cc(-c2c(C)noc2C)cc2nc(C3CC3)n(C)c12 [Compound 1020-74, 4-(2-Cyclopropyl-1-methyl-7-(6-methylquinolin-5-yl)-1H-benzo[d]imidazol-5-yl)-3,5-dimethylisoxazole]
[3]; [8]
  IC50: 97.1 nM
[4]; [9]
  IC50: 112 nM
[5]; [10]
  IC50: 18.9 nM

## Cc1n[nH]c(C)c1-c1cc(-c2c(C)noc2C)cc2[nH]c(NC3CC3)nc12 [Compound 1020-81, N-Cyclopropyl-4-(3,5-dimethyl-1H-pyrazol-4-yl)-6-(3,5-dimethylisoxazol-4-yl)-1H-benzo[d]imidazol-2-amine]
[3]; [8]
  IC50: 169 nM
[4]; [9]
  IC50: 119 nM
[5]; [10]
  IC50: 50.7 nM

## CCC(O)(CC)c1cc(-c2c(C)noc2C)cc2c1nc(C1CC1)n2C [Compound 1020-132, 3-(2-Cyclopropyl-6-(3,5-dimethylisoxazol-4-yl)-1-methyl-1H-benzo[d]imidazol-4-yl)pentan-3-ol]
[3]; [8]
  IC50: 610 nM
[4]; [9]
  IC50: 883 nM
[5]; [10]
  IC50: 573 nM

## Cc1noc(C)c1-c1cc(NC2CCCC2)c2nc(C3CC3)[nH]c2c1 [Compound 1020-50, N-Cyclopentyl-2-cyclopropyl-6-(3,5-dimethylisoxazol-4-yl)-1H-benzo[d]imidazol-4-amine]
[3]; [8]
  IC50: 299 nM
[4]; [9]
  IC50: 318 nM
[5]; [10]
  IC50: 125 nM

## Cc1ccc2ncccc2c1-c1cc(-c2c(C)noc2C)cc2[nH]c(C(F)(F)F)nc12 [Compound 1020-92, 3,5-Dimethyl-4-(4-(6-methylquinolin-5-yl)-2-(trifluoromethyl)-1H-benzo[d]imidazol-6-yl)isoxazole]
[3]; [8]
  IC50: 133 nM
[4]; [9]
  IC50: 102 nM
[5]; [10]
  IC50: 37.7 nM

## Cc1noc(C)c1-c1cc(-c2cccnc2-c2ccccc2)c2nc(C3CC3)[nH]c2c1 [Compound 1020-19, 4-(2-Cyclopropyl-4-(2-phenylpyridin-3-yl)-1H-benzo[d]imidazol-6-yl)-3,5-dimethylisoxazole]
[3]; [8]
  IC50: 134 nM
[4]; [9]
  IC50: 172 nM
[5]; [10]
  IC50: 28 nM

## Cc1ccc2ncccc2c1-c1cc(-c2c(C)noc2C)cc2[nH]c(C(O)CCO)nc12 (stereo not shown) [Compound 1020-89, 1-(6-(3,5-dimethylisoxazol-4-yl)-4-(6-methylquinolin-5-yl)-1H-benzo[d]imidazol-2-yl)propane-1,3-diol]
[3]; [8]
  IC50: 379 nM
[4]; [9]
  IC50: 151 nM
[5]; [10]
  IC50: 130 nM

## Cc1noc(C)c1-c1cc(C(O)(c2ccccc2)c2ccccc2)c2nc(C3CC3)[nH]c2c1 [Compound 1020-102, (2-Cyclopropyl-6-(3,5-dimethylisoxazol-4-yl)-1H-benzo[d]imidazol-4-yl)diphenylmethanol]
[3]; [8]
  IC50: 101 nM
[4]; [9]
  IC50: 75.7 nM
[5]; [10]
  IC50: 14.3 nM
